Experimental data reported in the supplement of paper PMC10307832.

Tests used:
Test in all cases: relative viability (nuclei count vs DMSO), 5 days (fraction); higher = more cells survive
[1] = compound: C1=CC2=NC=CN=C2C=C1/C=C/3\C(=O)NC(=O)S3 + Nc1ncn([C@H]2C[C@H](O)[C@@H](CO)O2)c(=O)n1 [Decitabine] (partner 2 µM)
Procedure, shortened: (§1)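 Each reported value is a median over duplicate plates. It expresses relative viability: treated-well nuclei count divided by vehicle-well nuclei count. Lung cancer cell lines in 1536-well plates were dosed by pin tool a day after seeding, alone with one drug or with a fixed anchor-drug dose plus five library-drug doses (not always all listed) in √10 steps, and nuclei were counted after 5 days.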

[2] = compound: CCN1CCN(c2ccc(Nc3cc(N(C)C(=O)Nc4c(Cl)c(OC)cc(OC)c4Cl)ncn3)cc2)CC1 [BGJ398] + Cc1nc(NC(=O)N2CCC[C@H]2C(N)=O)sc1-c1ccnc(C(C)(C)C(F)(F)F)c1 [Alpelisib] (partner 2 µM)
Procedure, shortened: as §1

[3] = compound: C1=CC2=NC=CN=C2C=C1/C=C/3\C(=O)NC(=O)S3 + Cc1nc(Nc2ncc(C(=O)Nc3c(C)cccc3Cl)s2)cc(N2CCN(CCO)CC2)n1 [Dasatinib] (partner 0.075 µM)
Procedure, shortened: as §1

[4] = compound: C1=CC2=NC=CN=C2C=C1/C=C/3\C(=O)NC(=O)S3 + CC(=O)c1c(C)c2cnc(Nc3ccc(N4CCNCC4)cn3)nc2n(C2CCCC2)c1=O [Palbociclib] (partner 0.5 µM)
Procedure, shortened: as §1

## UMC-11
[1]; first compound 0.02 µM
  relative viability: 0.695
[1]; first compound 0.06325 µM
  relative viability: 0.665
[1]; first compound 0.2 µM
  relative viability: 0.681
[1]; first compound 0.6325 µM
  relative viability: 0.531
[1]; first compound 2 µM
  relative viability: 0.69
[2]; first compound 0.01 µM
  relative viability: 0.999
[2]; first compound 0.03162 µM
  relative viability: 0.88
[2]; first compound 0.1 µM
  relative viability: 1.06
[2]; first compound 0.3162 µM
  relative viability: 0.983
[2]; first compound 1 µM
  relative viability: 0.907
[3]; first compound 0.02 µM
  relative viability: 0.467
[3]; first compound 0.06325 µM
  relative viability: 0.523
[3]; first compound 0.2 µM
  relative viability: 0.427
[3]; first compound 0.6325 µM
  relative viability: 0.489
[3]; first compound 2 µM
  relative viability: 0.519
[4]; first compound 0.02 µM
  relative viability: 0.341
[4]; first compound 0.06325 µM
  relative viability: 0.328
[4]; first compound 0.2 µM
  relative viability: 0.33
[4]; first compound 0.6325 µM
  relative viability: 0.328
[4]; first compound 2 µM
  relative viability: 0.414
